Assay results reported in US10695330B2, “Methods of treatment” (Global Blood Therapeutics, Inc., priority 2015, dated 2020).

Tested on: activated neutrophils
Experiment: Oxidative burst in activated neutrophils
Assay type: cell-based
Conditions: in vitro
Source text: Reactive oxygen species (ROS) released from activated white blood cells cause lung injury as well as fibrotic changes in patients with IPF. […] Thus, the compounds described herein could also provide a method to inhibit the adverse effects of inflammation in a patient. Reduction in systemic pro-inflammatory cytokines (tumor necrosis alpha and interleukin-6) also has the potential to exert a broad anti-inflammatory effect which would supplement the beneficial effect of alleviation of hypoxemia via increased hemoglobin-O2 affinity.

O=Cc1ccc(CO)o1 [Compound 5-HMF, 5-hydroxymethyl-2-furfural, reference compound]
anti-oxidative activity (oxidative burst): does not display this activity
